Earlier results, collected in patent US20060159736A1, “Liposome formulations of boronic acid compounds” (priority 2004, published 2006).
Where two headings read alike, the source gives them in different places.

Legend:
tumor lines = settings: range of tumor lines
[1] = given intravenously once or twice weekly; patients with solid tumors
lung cancer xenograft = lung cancer xenograft models
[2] = test system: human prostate cancer xenograft; settings: human prostate xenograft models
[3] = test system: cancer tissues (breast, ovarian, prostate, lung) and tumors (pancreatic tumors, lymphomas, melanoma)
[4] = intravenous bolus on days 1, 4, 8, and 11 of a 3-week cycle

SMILES: CC(C)C[C@H](NC(=O)[C@H](Cc1ccccc1)NC(=O)c1cnccn1)B(O)O [bortezomib]
- cytotoxicity (tumor lines): showed cytotoxicity against a range of tumor lines
- maximum tolerated dose [1]: 1.3 mg/m^2
- antitumor activity (lung cancer xenograft): had antitumor activity
- antitumor activity [2]: had antitumor activity
- activity against cancer tissues and tumors [3]: activity against a variety of cancer tissues
- maximum tolerated dose [4]: 1.56 mg/m^2
